US20070020340A1, “Fish oil products for reducing cholesterol, low density lipoprotein, and hypertension” (priority 2005, published 2007)

Legend:
[1] = tested on: men with moderately elevated cholesterol who also suffered from moderate to high hypertension; test: 16-week study of fish oil (EPA/DHA) with or without allicin, oleuropein or Policosanol in eight treatment groups; assay type: in vivo, human; details: after sixteen weeks of daily treatment
Protocol: Eighty men with moderately elevated cholesterol who also suffered from moderate to high hypertension, were assigned to one of eight treatment groups, and followed for 16 weeks. The EPA and DHA administered was from fish oil and in free fatty acid form containing 3 grams of EPA and 2 grams of DHA, administered daily. Group one received fish oil alone. Group two received the same amount of fish oil with 5 mg allicin dissolved in the fish oil. Group three received the same amount of fish oil with 100 mg oleuropein dissolved therein. Group four received the same amount of fish oil with 10 mg of Policosanol dissolved therein. Group five received soft gelatin capsules with sunflower oil rather than fish oil. Group six received 5 mg of allicin dissolved in sunflower oil. Group seven received 100 mg oleuropein dissolved in sunflower oil. Group eight received Policosanol dissolved in sunflower oil. After sixteen weeks of treatment, the results were as follows: • 1. Group one registered 5% lowering of serum triglycerides. There was no change in HDL cholesterol and an 8% increase in LDL. Systolic blood pressure dropped by average of 3% and diastolic blood pressure dropped by average of 2%. • 2. Group two registered a 30% lowering of triglycerides, 12% decrease in LDL, and 8% increase in HDL. Both systolic and diastolic blood pressure dropped by an average of 10% • 3. Group three registered a 25% lowering of serum triglycerides, 10% decrease of LDL, and 10% increase in HDL. Systolic pressure dropped by average of 12% and diastolic pressure dropped by average of 10% • 4. Group four registered 20% lowering of serum triglycerides, 12% decrease of LDL, and 8% increase in HDL. Systolic and diastolic pressure dropped by average of 10%. • 5. Group five had no change in any of the parameters tested. • 6. Group six registered 3% lowering of serum triglycerides, 6% lowering of LDL and 2% increase of HDL. Sistolic and diastolic pressure dropped by average of 5% • 7. […] Systolic blood pressure dropped by average of 7% and diastolic pressure dropped by average of 5%. • 8. Group eight registered 10% lowering of serum triglycerids, 8% lowering of LDL, and 5% increase of HDL.

hyperlipidemic rabbits = details: cholesterol-rich diet; cited from earlier work
interleukin-1-beta = details: cited from earlier work
[2] = compared with oleuropein, tyrosol, hydroxytyrosol; cited from earlier work

## C/C=C1/[C@H](O[C@@H]2O[C@H](CO)[C@@H](O)[C@H](O)[C@H]2O)OC=C(C(=O)OC)[C@H]1CC(=O)OCCc1ccc(O)c(O)c1 [Group seven, oleuropein]
[1]
  diastolic blood pressure dropped by average of: 5%
  lowering of serum triglycerides: 12%
  systolic blood pressure dropped by average of: 7%

## C=CCS[S+]([O-])CC=C (stereo not drawn) [Group six, allicin]
[1]
  decrease in LDL: 6%
  diastolic blood pressure dropped by average of: 5%
  increase in HDL: 2%
  lowering of serum triglycerides: 3%
  systolic blood pressure dropped by average of: 5%

## C=CCS[S+]([O-])CC=C (stereo not drawn) [allicin]
Hyperlipidemic rabbits
  effect on the serum lipid profile: beneficial effect

## O=C(O)/C=C/c1ccc(O)c(O)c1 [carreic acid]
interleukin-1-beta
  concentration of interleukin-1-beta: decreased

## COc1cc(CCO)ccc1O [homovanillic alcohol]
[2]
  antioxidant potency: significantly more potent antioxidant than the other phenolics

## C/C=C1/[C@H](O[C@@H]2O[C@H](CO)[C@@H](O)[C@H](O)[C@H]2O)OC=C(C(=O)OC)[C@H]1CC(=O)OCCc1ccc(O)c(O)c1 [oleuropein glycoside]
interleukin-1-beta
  concentration of interleukin-1-beta: decreased
